pIC50: −log10 of the molar value. Where “and” joins values, the source holds several entries; their conditions need not be identical. Equal entries are not always repeated. Structures can show the parent of a compound that is named as a salt. Where two headings read alike, the source gives them in different places.
How the values were obtained:
Experiment in all cases: Microculture tetrazolium assay
Format in all cases: cell-based
SKOV3 = test system: SKOV3
T47D = test system: T47D
HT29 = test system: HT29
SKVLB = conditions: for VLB/OV3: IC50 ratio SKVLB/SKOV3; for pIC50: SKVLB
LOX = test system: LOX
[1] = Homo sapiens, SK-OV-3, SKOV3, read-out: IC50
[2] = Homo sapiens, HT-29, HT29, read-out: IC50

Row | SMILES | pIC50 (SKOV3; [1]) | pIC50 (T47D; Homo sapiens, read-out: IC50) | pIC50 (HT29; [2]) | VLB/OV3 (SKVLB) | pIC50 (SKVLB; read-out: IC50) | pIC50 (LOX; read-out: IC50) | pIC50 (SKVLB) | other results
1 | CC(=O)CC1CC2=C(C(=O)c3cc4ccccc4c(O)c3C2=O)C(O[C@H]2C[C@H](N)[C@H](O)[C@H](C)O2)O1 (mixture of isomers) [BCH-2111, (1'S,1R,3S) and (1'S,1S,3R)-3-6-hydroxy-1-(2',3',6'-trideoxy-3'-amino-4'-hydroxy-L-lyxohexopyranose-5,12-dioxo-3,4,5,12-tetrahydroanthraceno[2,3-c]pyran-3-yl)propanone hydrochloride] | 5.67 | 5.62 | 6.02 | 5.51 | 4.93 | – | – | –
2 | CC(=O)[C@@H]1CC2=C(C(=O)c3cc4ccccc4c(O)c3C2=O)[C@@H](O[C@H]2C[C@H](NC(=O)C(F)(F)F)[C@H](O)[C@H](C)O2)O1 [BCH-730, (1S',1R,3S)-Methyl-(6-hydroxy-1-(3'-trifluoroacyldaunosamine)-5,12-dioxo-3,4,5,12-tetrahydroanthraceno[2,3-C]pyran-3-yl) ketone] | 5.45 | 5.44 | – | – | 5.70 and 5.54 | 5.78 | – | pIC50 (LOX): 5.75; pIC50 (T47D; read-out: IC50): 5.51
3 | CC(=O)[C@@H]1CC2=C(C(=O)c3cc4ccccc4c(O)c3C2=O)[C@@H](O[C@H]2C[C@H](N)[C@H](O)[C@H](C)O2)O1 [BCH-1128] | 6.06 | 5.88 | – | 1.60 and 1.83 | 5.85 and 5.66 | 6.07 and 6.31 | – | pIC50 (SKOV3; SKOV3, read-out: IC50): 5.92; pIC50 (T47D; read-out: IC50): 5.72
4 | CC(=O)C1Cc2c(O)c3c(c(O)c2C(O[C@H]2C[C@H](N4CCOCC4)[C@H](O)[C@H](C)O2)O1)C(=O)c1ccccc1C3=O (stereo partly drawn) [BCH-1193] | – | – | – | 2.46 | – | – | 5.32 and 5.31 | pIC50 (SKOV3; SKOV3): 5.71; pIC50 (T47D): 5.59 and 5.38; pIC50 (HT29; HT29): 5.98 and 6.03
5 | C=CC[C@@H]1CC2=C(C(=O)c3cc4ccccc4c(O)c3C2=O)[C@@H](O[C@H]2C[C@H](NC(=O)C(F)(F)F)[C@H](O)[C@H](C)O2)O1 [BCH-1687, (1S,1R,3R)-3-(6-hydroxy-1-(2',3',6'-trideoxy-3'-trifluoroacetamido-4'-hydroxy-L-lyxohexopyranose)-5,12-dioxo-3,4,5,12-tetrahydroanthraceno-[2,3-c]pyran-3-yl)propene] | 6.10 | – | 5.91 | 2.35 | 5.73 | 6.15 | – | –
6 | C=CC[C@@H]1CC2=C(C(=O)c3cc4ccccc4c(O)c3C2=O)[C@@H](O[C@H]2C[C@H](N)[C@H](O)[C@H](C)O2)O1 [BCH-2005, (1'S,1R,3R)-3-(6-hydroxy-1-(2',3',6'-trideoxy-3'-amino-4'-hydroxy-L-lyxohexopyranose)-5,12-dioxo-3,4,5,12-tetrahydroanthraceno-[2,3-c]pyran-3-yl)propene hydrochloride] | 6.47 | – | 6.61 | 1.07 | 6.44 | 6.86 | – | –
7 | C=CC[C@@H]1Cc2c(O)c3c(c(O)c2[C@@H](O[C@H]2C[C@H](NC(=O)C(F)(F)F)[C@H](O)[C@H](C)O2)O1)C(=O)c1ccccc1C3=O [BCH-2108, (1'S,1R,3R)-3-(5,12-dihydroxy-1-(2',3',6'-trideoxy-3'-trifluoroacetamido-4'-hydroxy-L-lyxohexopyranose)-6,11-dioxo-3,4,5,12-tetrahydroanthraceno-[2,3-c]pyran-3-yl)propene] | 4.94 | 4.92 | 5.07 | 1.25 | 4.84 | – | – | –
8 | C=CC[C@H]1Cc2c(O)c3c(c(O)c2[C@H](O[C@H]2C[C@H](NC(=O)NCCCl)[C@H](O)[C@H](C)O2)O1)C(=O)c1ccccc1C3=O [BCH-2110] | – | – | – | 1.14 | – | – | 5.55 | pIC50 (SKOV3; Homo sapiens, SK-OV-3, SKOV3): 5.61; pIC50 (T47D; Homo sapiens): 5.61; pIC50 (HT29; Homo sapiens, HT-29, HT29): 5.82
9 | CC(=O)C1Cc2c(O)c3c(c(O)c2C(OC2CCC(NC(=O)N(CCCl)N=O)CC2)O1)C(=O)c1ccccc1C3=O [BCH-2116, (1R,3S) and (1S ,3R)-3-aceto-6,11-dioxo-5,12-dihydroxy-1(4-chloroethylnitrosoureido-cyclohexyl-oxy)-3,4,6,11-tetrahydro-1H-anthra[2,3-C]pyran] | – | – | – | 2.68 | – | – | 4.30 | pIC50 (SKOV3; Homo sapiens, SK-OV-3, SKOV3): 4.73; pIC50 (T47D; Homo sapiens): 4.64; pIC50 (HT29; Homo sapiens, HT-29, HT29): 4.63

Source: US5593970A, “Heterocyclic anthracycline analogs” (priority 1994, dated 1997)
